From patent publication US20050181376A1, “Antisense modulation of microsomal triglyceride transfer protein expression” (ISIS Pharmaceuticals, Inc., priority 2001, published 2005)
Strand notation (5' to 3'): a small letter for the sugar, then the base; units joined by * are phosphorothioate-linked, units joined directly phosphodiester-linked; [ ] holds rarer units or linkages, { } end groups; capitals alone tell only the bases. e = 2'-O-(2-methoxyethyl) (MOE); [5mC] = 5-methylcytosine; d = 2'-deoxy (DNA)

System: mouse microsomal triglyceride transfer protein mRNA
Experiment: Antisense inhibition of mouse microsomal triglyceride transfer protein mRNA levels in primary hepatocytes, quantitative real-time PCR
Format: cell-based
Design: concentration or dose not given beside the values
Conditions: averages from two experiments
Experimental: Primary mouse hepatocytes were prepared from CD-1 mice purchased from Charles River Labs (Wilmington, Mass.) and were routinely cultured in Hepatocyte Attachment Media (Gibco) supplemented with 10% Fetal Bovine Serum (Gibco/Life Technologies, Gaithersburg, Md.), 250 nM dexamethasone (Sigma), and 10 nM bovine insulin (Sigma). Cells were seeded into 96-well plates (Falcon-Primaria #3872) at a density of 10000 cells/well for use in RT-PCR analysis.
Cells were harvested 16-24 hours after oligonucleotide treatment.
All cytidine residues are 5-methylcytidines. […] Data are averages from two experiments. If present, “N.D.” indicates “no data”.

144479 (e[5mC]*eA*e[5mC]*e[5mC]*eT*dG*d[5mC]*d[5mC]*dA*d[5mC]*dT*dT*dG*d[5mC]*dT*eT*e[5mC]*e[5mC]*e[5mC]*eG; antisense) [compound 144479]
% INHIB (inhibition of mouse microsomal triglyceride transfer protein mRNA levels): 65%

144469 (eG*eA*eG*eT*eA*d[5mC]*dG*dT*dG*dA*dG*d[5mC]*dT*dT*dG*eT*eA*eT*eA*eG; antisense) [compound 144469]
% INHIB (inhibition of mouse microsomal triglyceride transfer protein mRNA levels): 0%

GACCACCCTGGATCTCCATA (all phosphorothioate, sugars by position and methylation of C not given here; 2'-MOE wings and deoxy gap) [ISIS 144501, 2′-MOE gapmer phosphorothioate antisense oligonucleotide to mouse MTP]
% INHIB (inhibition of mouse microsomal triglyceride transfer protein mRNA levels): at least 30%

144473 (eG*e[5mC]*e[5mC]*eT*e[5mC]*d[5mC]*dA*dG*dG*dT*dT*dG*dT*d[5mC]*d[5mC]*eT*eT*e[5mC]*e[5mC]*e[5mC]; antisense) [compound 144473]
% INHIB (inhibition of mouse microsomal triglyceride transfer protein mRNA levels): 1%

144503 (eG*eT*eT*eA*eT*d[5mC]*dA*d[5mC]*d[5mC]*dA*d[5mC]*dA*dG*d[5mC]*d[5mC]*eA*e[5mC]*e[5mC]*e[5mC]*eG; antisense) [compound 144503]
% INHIB (inhibition of mouse microsomal triglyceride transfer protein mRNA levels): 50%

144475 (eT*eG*eG*eA*eA*dT*dA*dA*dG*d[5mC]*dT*dA*dG*d[5mC]*d[5mC]*eA*eA*eG*e[5mC]*e[5mC]; antisense) [compound 144475]
% INHIB (inhibition of mouse microsomal triglyceride transfer protein mRNA levels): 18%

144502 (e[5mC]*eT*e[5mC]*eG*e[5mC]*dG*dA*dT*dA*d[5mC]*d[5mC]*dA*d[5mC]*dA*dG*eA*e[5mC]*eT*eG*eA; antisense) [compound 144502]
% INHIB (inhibition of mouse microsomal triglyceride transfer protein mRNA levels): 51%

CAGAATGCCAGAGCCAGAGT (all phosphorothioate, sugars by position and methylation of C not given here; 2'-MOE wings and deoxy gap) [ISIS 144495, 2′-MOE gapmer phosphorothioate antisense oligonucleotide to mouse MTP]
% INHIB (inhibition of mouse microsomal triglyceride transfer protein mRNA levels): at least 30%

144506 (e[5mC]*eA*e[5mC]*eA*eT*d[5mC]*d[5mC]*dG*dG*d[5mC]*d[5mC]*dA*d[5mC]*dT*dA*eG*eG*e[5mC]*eT*e[5mC]; antisense) [compound 144506]
% INHIB (inhibition of mouse microsomal triglyceride transfer protein mRNA levels): 0%

144497 (e[5mC]*eT*e[5mC]*eT*e[5mC]*d[5mC]*dT*dT*d[5mC]*dA*dT*d[5mC]*dA*dG*dG*eA*eG*eT*eG*eG; antisense) [compound 144497]
% INHIB (inhibition of mouse microsomal triglyceride transfer protein mRNA levels): 57%

144500 (e[5mC]*e[5mC]*e[5mC]*eT*eT*dT*d[5mC]*dA*d[5mC]*d[5mC]*dA*d[5mC]*dG*d[5mC]*dT*eG*eA*e[5mC]*eA*eG; antisense) [compound 144500]
% INHIB (inhibition of mouse microsomal triglyceride transfer protein mRNA levels): 34%

144468 (eG*eA*eT*e[5mC]*eA*dT*dG*d[5mC]*dT*dG*dG*d[5mC]*dT*d[5mC]*d[5mC]*e[5mC]*eT*e[5mC]*eT*eG; antisense) [compound 144468]
% INHIB (inhibition of mouse microsomal triglyceride transfer protein mRNA levels): 0%

144477 (e[5mC]*e[5mC]*e[5mC]*eA*eG*d[5mC]*dA*d[5mC]*d[5mC]*dT*dG*dG*dT*dT*dT*eG*e[5mC]*e[5mC]*eG*eT; antisense) [compound 144477]
% INHIB (inhibition of mouse microsomal triglyceride transfer protein mRNA levels): 94%

144507 (eT*e[5mC]*eT*e[5mC]*eA*dG*dA*dG*dT*dT*d[5mC]*dT*dG*dT*dT*eG*eA*eT*eG*eG; antisense) [compound 144507]
% INHIB (inhibition of mouse microsomal triglyceride transfer protein mRNA levels): 0%

144498 (eT*eG*eA*e[5mC]*eA*dT*dG*d[5mC]*d[5mC]*dA*dG*d[5mC]*dA*dT*dA*eA*eG*eA*eG*eT; antisense) [compound 144498]
% INHIB (inhibition of mouse microsomal triglyceride transfer protein mRNA levels): 44%

CAGCCTCAGCATACTTCAGA (all phosphorothioate, sugars by position and methylation of C not given here; 2'-MOE wings and deoxy gap) [ISIS 144488, 2′-MOE gapmer phosphorothioate antisense oligonucleotide to mouse MTP]
% INHIB (inhibition of mouse microsomal triglyceride transfer protein mRNA levels): at least 30%

144482 (eG*eA*eA*eG*eT*d[5mC]*d[5mC]*dG*dG*dA*dG*dG*dT*dG*d[5mC]*eT*eG*eG*eA*eT; antisense) [compound 144482]
% INHIB (inhibition of mouse microsomal triglyceride transfer protein mRNA levels): 3%

CTCTGATGTCGTTGCTTGCA (all phosphorothioate, sugars by position and methylation of C not given here; 2'-MOE wings and deoxy gap) [ISIS 144485, 2′-MOE gapmer phosphorothioate antisense oligonucleotide to mouse MTP]
% INHIB (inhibition of mouse microsomal triglyceride transfer protein mRNA levels): at least 30%

144505 (eA*eG*e[5mC]*e[5mC]*eT*dT*dG*dT*d[5mC]*d[5mC]*dA*dT*d[5mC]*dT*dG*e[5mC]*eA*eT*eG*e[5mC]; antisense) [compound 144505]
% INHIB (inhibition of mouse microsomal triglyceride transfer protein mRNA levels): 24%

144483 (e[5mC]*eA*eG*eA*eG*dG*dT*dG*dA*d[5mC]*dG*dG*d[5mC]*dA*dT*e[5mC]*e[5mC]*eA*e[5mC]*e[5mC]; antisense) [compound 144483]
% INHIB (inhibition of mouse microsomal triglyceride transfer protein mRNA levels): 22%

TGACATGCCAGCATAAGAGT (all phosphorothioate, sugars by position and methylation of C not given here; 2'-MOE wings and deoxy gap) [ISIS 144498, 2′-MOE gapmer phosphorothioate antisense oligonucleotide to mouse MTP]
% INHIB (inhibition of mouse microsomal triglyceride transfer protein mRNA levels): at least 30%

144496 (e[5mC]*eT*eG*e[5mC]*eA*dA*dT*dT*dA*dA*dG*d[5mC]*d[5mC]*dT*dT*e[5mC]*e[5mC]*eA*eG*e[5mC]; antisense) [compound 144496]
% INHIB (inhibition of mouse microsomal triglyceride transfer protein mRNA levels): 40%

144476 (e[5mC]*e[5mC]*e[5mC]*eA*eG*dA*dG*dA*dT*dA*dT*d[5mC]*dT*dA*d[5mC]*e[5mC]*eT*e[5mC]*eG*eT; antisense) [compound 144476]
% INHIB (inhibition of mouse microsomal triglyceride transfer protein mRNA levels): 19%

144484 (e[5mC]*e[5mC]*eT*eG*eG*dA*dG*dT*dA*dT*dG*dA*dT*dA*d[5mC]*eT*eG*e[5mC]*eT*eG; antisense) [compound 144484]
% INHIB (inhibition of mouse microsomal triglyceride transfer protein mRNA levels): 48%

GTTATCACCACAGCCACCCG (all phosphorothioate, sugars by position and methylation of C not given here; 2'-MOE wings and deoxy gap) [ISIS 144503, 2′-MOE gapmer phosphorothioate antisense oligonucleotide to mouse MTP]
% INHIB (inhibition of mouse microsomal triglyceride transfer protein mRNA levels): at least 30%

CCCTGGTCTCTTCTGCAAGC (all phosphorothioate, sugars by position and methylation of C not given here; 2'-MOE wings and deoxy gap) [ISIS 144478, 2′-MOE gapmer phosphorothioate antisense oligonucleotide to mouse MTP]
% INHIB (inhibition of mouse microsomal triglyceride transfer protein mRNA levels): at least 30%
